What was measured:
[1] = target: 5-hydroxytryptamine receptor 2A (Homo sapiens, UniProt P28223); assay: Displacement of [3H]Ketanserin from human 5HT2A receptor expressed in HEK293 cells
D(2) dopamine receptor [2] = target: T1, D(2) dopamine receptor (Homo sapiens, UniProt P14416); assay: Displacement of [3H]Spiperone from human dopamine D2 receptor expressed in HEK293 cells
Dopamine D1 receptor = assay: Displacement of [3H]SCH23390 from rat dopamine D1 receptor expressed in HEK293 cells
D(2) dopamine receptor [3] = target: T1, D(2) dopamine receptor; assay: Displacement of […] from human dopamine D2 receptor expressed in HEK293 cells; format: cell-based

T1 sequence (P14416 whole entry): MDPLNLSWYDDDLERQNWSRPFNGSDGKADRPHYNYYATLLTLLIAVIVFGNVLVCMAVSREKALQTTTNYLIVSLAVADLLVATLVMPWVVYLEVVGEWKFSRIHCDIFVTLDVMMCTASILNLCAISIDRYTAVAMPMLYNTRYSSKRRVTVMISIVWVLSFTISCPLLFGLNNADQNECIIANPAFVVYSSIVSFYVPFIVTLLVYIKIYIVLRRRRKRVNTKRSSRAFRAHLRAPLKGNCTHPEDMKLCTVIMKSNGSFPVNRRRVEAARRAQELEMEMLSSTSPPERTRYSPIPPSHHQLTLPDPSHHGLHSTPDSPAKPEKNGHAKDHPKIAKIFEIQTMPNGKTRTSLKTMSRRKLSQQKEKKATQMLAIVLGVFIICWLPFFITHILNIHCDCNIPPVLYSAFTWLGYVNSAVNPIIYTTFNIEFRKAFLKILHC
5-hydroxytryptamine receptor 2A, sequence (P28223 whole entry): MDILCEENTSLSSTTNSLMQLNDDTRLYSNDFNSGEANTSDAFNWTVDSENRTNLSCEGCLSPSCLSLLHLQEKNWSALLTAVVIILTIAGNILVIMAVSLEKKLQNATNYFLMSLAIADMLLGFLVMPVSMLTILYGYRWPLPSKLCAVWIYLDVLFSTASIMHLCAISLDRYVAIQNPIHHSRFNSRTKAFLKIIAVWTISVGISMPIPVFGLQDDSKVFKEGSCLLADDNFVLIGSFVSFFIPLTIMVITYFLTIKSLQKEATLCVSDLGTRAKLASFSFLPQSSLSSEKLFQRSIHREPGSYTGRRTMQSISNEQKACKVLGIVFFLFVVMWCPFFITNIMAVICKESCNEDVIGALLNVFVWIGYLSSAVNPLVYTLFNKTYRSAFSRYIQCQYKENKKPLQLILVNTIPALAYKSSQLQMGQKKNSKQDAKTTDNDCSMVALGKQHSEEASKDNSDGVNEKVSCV

Ki (D(2) dopamine receptor [3]) | Structure (SMILES) | Ki [1] | Ki (D(2) dopamine receptor [2]) | Ki (Dopamine D1 receptor)
 | CCCN1CCc2cccc3c2[C@H]1Cc1cccc(OC(C)=O)c1-3 | 72 nM |  | 
 | CCCN1CCc2cccc3c2[C@H]1Cc1cccc(O)c1-3 | 114 nM |  | 
 | CCCCC(=O)Oc1cccc2c1-c1cccc3c1[C@@H](C2)N(CCC)CC3 | 92 nM | > 10000 nM | 
 | CCCN1CCc2cccc3c2[C@H]1Cc1cccc(OC(=O)CNC(=O)OCc2ccccc2)c1-3 | > 10000 nM | > 10000 nM | > 10000 nM
 | CCCC(=O)Oc1cccc2c1-c1cccc3c1[C@@H](C2)N(CCC)CC3 | 56 nM | > 10000 nM | > 10000 nM
> 10000 nM | CCCN1CCc2cccc3c2[C@H]1Cc1cccc(OC(=O)CCCC(=O)Oc2cccc4c2-c2cccc5c2[C@@H](C4)N(CCC)CC5)c1-3 |  |  | 
 | CCCN1CCc2cccc3c2[C@H]1Cc1cccc(OC(=O)CC)c1-3 | 109 nM |  | 
 | CCCCCC(=O)Oc1cccc2c1-c1cccc3c1[C@@H](C2)N(CCC)CC3 | 109 nM | > 10000 nM | > 10000 nM
 | CCCCCCC(=O)Oc1cccc2c1-c1cccc3c1[C@@H](C2)N(CCC)CC3 | 95 nM |  | 

From ChEMBL document CHEMBL1144215, “N-Propylnoraporphin-11-O-yl carboxylic esters as potent dopamine D(2) and serotonin 5-HT(1A) receptor dual ligands” (Bioorg Med Chem, 2008)
